Experimental data from US20250082624A1, “METHODS OF TREATING COGNITIVE IMPAIRMENT” (NeuroTherapia, Inc., priority 2023, published 2025).
“Also recorded” adds a separate entry of the source. Read-outs that look alike come from different tables or passages of the source.

Assay: Phase 1b MAD plasma pharmacokinetics, non-compartmental analysis
Assay type: in vivo, human
Text: Methods: All study procedures were approved by the IRB, and informed consent was obtained. Three cohorts of volunteers 45-80 years of age with well-controlled comorbidities (NOAD) and one cohort of AD patients diagnosed with cognitive impairment consistent with prodromal AD per International Working Group criteria or mild AD per National Institute on Aging—Alzheimer's Association criteria (n=6 active, 2 placebo per cohort) were enrolled. Participants were admitted to the study site for the duration of the dosing and returned 7-12 days after the last dose for a safety visit. Participants received NTRX-07 (10, 30, or 90 mg) or a placebo in a double-blinded randomization orally once daily for seven days. Subjects were assessed for changes in vital signs, including maneuvers to induce lightheadedness, electrocardiograms, 24-hour electroencephalograms (EEG), and safety laboratory studies. The second cohort returned and received a single repeat dose after a standard high-fat meal. The AD cohort also underwent cognitive testing and had blood samples for biomarkers drawn. Subjects had PK sampling done after the first and final dose of the study drug. An independent safety review committee conducted a blinded safety review of adverse events and plasma levels between each cohort.
All subjects had PK sampling done after the first and final dose of the study drug.
(§1) Raw bioanalytical data were received from Nuvisan following analysis of plasma samples from each of four cohorts. PK parameters were calculated by noncompartmental analysis using standard equations. Specifically, area under the plasma concentration versus time curve (AUC) was calculated using the trapezoid rule. Maximal plasma concentration (Cmax) and time of maximal plasma concentration (Tmax) were taken directly from the data. Clearance divided by bioavailability (Cl/F) was calculated as the dose divided by the AUC. Apparent volume of distribution over bioavailability (Vd/F) was calculated as dose divided by Cmax.
With oral administration of the dose every 24 hours for 7 days, blood samples were taken over a 24-hour interval on Days 1 and 7 and before and after dosing on Day 3.
as §1, with “on Oct. 27, 2022. […]” for “following analysis of plasma samples from each of four cohorts. PK parameters were calculated by noncompartmental analysis using standard equations.”
as §1, with “on Nov. 24, 2022. […]” for “following analysis of plasma samples from each of four cohorts. PK parameters were calculated by noncompartmental analysis using standard equations.”
as §1, with “on Dec. 19, 2022. […]” for “following analysis of plasma samples from each of four cohorts. PK parameters were calculated by noncompartmental analysis using standard equations.”
Raw bioanalytical data were received from Nuvisan on Jun. 30, 2023. […] Specifically, area under the plasma concentration versus time curve (AUC) was calculated using the trapezoid rule. Maximal plasma concentration (Cmax) and time of maximal plasma concentration (Tmax) were taken directly from the data. […]

Compound: CC1(Cc2ccccc2)COc2cc(C(=O)N3CCCCC3)ccc21 (stereo not drawn) [NTRX-07, 3-benzyl-3-methyl-2,3-dihydrobenzofuran-6-carboxylic acid-piperidine amide]
- Cmax (human, plasma, po, 90 mg, Cohort D AD patients, 90 mg QD oral, Day 7, mean ± SD, read-out: Average of Cmax): 240 ± 38 ng/mL
- Tmax (human, plasma, po, 90 mg, Cohort D AD patients, 90 mg QD oral, Day 7, mean ± SD, read-out: Average of Tmax): 1.1 ± 0.5 h
- Vd/F (human, plasma, po, 90 mg, Cohort D AD patients, 90 mg QD oral, Day 7, mean ± SD, read-out: Average of Vd/F): 384 ± 69 L
- AUC over 24 h (AUC0-24) (human, plasma, po, 90 mg, Table 14: Cohort C, 90 mg QD oral, Day 1, mean ± S.D.): 1270 ± 509 ng·h/mL
- Cmax (human, plasma, po, 90 mg, Table 14: Cohort C, 90 mg QD oral, Day 1, mean ± S.D., read-out: Cmax): 400 ± 202 ng/mL
- Tmax (human, plasma, po, 90 mg, Table 14: Cohort C, 90 mg QD oral, Day 1, mean ± S.D., read-out: Tmax): 2.3 ± 2.2 h
- Vd/F (human, plasma, po, 90 mg, Table 14: Cohort C, 90 mg QD oral, Day 1, mean ± S.D., read-out: Vd/F): 337 ± 316 L
- AUC over 24 h (AUC0-24) (human, plasma, po, 90 mg, Table 15: Cohort C, 90 mg QD oral, Day 7, mean ± S.D.): 741 ± 357 ng·h/mL
- Cmax (human, plasma, po, 90 mg, Table 15: Cohort C, 90 mg QD oral, Day 7, mean ± S.D., read-out: Cmax): 189 ± 95 ng/mL
- Tmax (human, plasma, po, 90 mg, Table 15: Cohort C, 90 mg QD oral, Day 7, mean ± S.D., read-out: Tmax): 1.3 ± 1 h
- Vd/F (human, plasma, po, 90 mg, Table 15: Cohort C, 90 mg QD oral, Day 7, mean ± S.D., read-out: Vd/F): 568 ± 231 L
- AUC(0-t) (human, plasma, po, 90 mg, Table 16: Cohort D (AD), 90 mg QD oral, Day 1, mean ± S.D., read-out: AUClast): 1560 ± 605 ng·h/mL
- Cmax (human, plasma, po, 90 mg, Table 16: Cohort D (AD), 90 mg QD oral, Day 1, mean ± S.D., read-out: Cmax): 478 ± 154 ng/mL
- Tmax (human, plasma, po, 90 mg, Table 16: Cohort D (AD), 90 mg QD oral, Day 1, mean ± S.D., read-out: Tmax): 1.1 ± 0.6 h
- Vd/F (human, plasma, po, 90 mg, Table 16: Cohort D (AD), 90 mg QD oral, Day 1, mean ± S.D., read-out: Vd/F): 211 ± 90 L
- AUC over 24 h (AUC0-24) (human, plasma, po, 90 mg, Table 17: Cohort D (AD), 90 mg QD oral, Day 7, individual subjects): 623 ng·h/mL
- Cmax (human, plasma, po, 90 mg, Table 17: Cohort D (AD), 90 mg QD oral, Day 7, individual subjects, read-out: Cmax): 286 ng/mL
- Vd/F (human, plasma, po, 90 mg, Table 17: Cohort D (AD), 90 mg QD oral, Day 7, individual subjects, read-out: Vd/F): 315 L
- AUC over 24 h (AUC0-24) (human, plasma, po, 90 mg, Table 17: Cohort D (AD), 90 mg QD oral, Day 7, mean ± S.D.): 806 ± 196 ng·h/mL
- Cmax (human, plasma, po, 90 mg, Table 17: Cohort D (AD), 90 mg QD oral, Day 7, mean ± S.D., read-out: Cmax): 240 ± 38 ng/mL
- Tmax (human, plasma, po, 90 mg, Table 17: Cohort D (AD), 90 mg QD oral, Day 7, mean ± S.D., read-out: Tmax): 1.1 ± 0.5 h
- Vd/F (human, plasma, po, 90 mg, Table 17: Cohort D (AD), 90 mg QD oral, Day 7, mean ± S.D., read-out: Vd/F): 384 ± 69 L
- AUC over 24 h (AUC0-24) (human, plasma, po, 120 mg, Table 24 (interim): Cohort B, 120 mg SDD (30 mg NTRX-07) QD oral, Day 1, mean ± S.D.): 323 ± 213 ng·h/mL
- Cmax (human, plasma, po, 120 mg, Table 24 (interim): Cohort B, 120 mg SDD (30 mg NTRX-07) QD oral, Day 1, mean ± S.D., read-out: Cmax): 109 ± 57.8 ng/mL
- Tmax (human, plasma, po, 120 mg, Table 24 (interim): Cohort B, 120 mg SDD (30 mg NTRX-07) QD oral, Day 1, mean ± S.D., read-out: Tmax): 0.9 ± 0.6 h
- Vd/F (human, plasma, po, 120 mg, Table 24 (interim): Cohort B, 120 mg SDD (30 mg NTRX-07) QD oral, Day 1, mean ± S.D., read-out: Vd/F): 1340 ± 750 L
- Tmax (human, plasma, po, 120 mg, Table 25 (interim): Cohort B, 120 mg SDD (30 mg NTRX-07) QD oral, Day 7, individual subjects, read-out: Tmax): 0.5 h
- AUC over 24 h (AUC0-24) (human, plasma, po, 120 mg, Table 25 (interim): Cohort B, 120 mg SDD (30 mg NTRX-07) QD oral, Day 7, mean ± S.D.): 214 ± 191 ng·h/mL
- Cmax (human, plasma, po, 120 mg, Table 25 (interim): Cohort B, 120 mg SDD (30 mg NTRX-07) QD oral, Day 7, mean ± S.D., read-out: Cmax): 120 ± 79.2 ng/mL
- Tmax (human, plasma, po, 120 mg, Table 25 (interim): Cohort B, 120 mg SDD (30 mg NTRX-07) QD oral, Day 7, mean ± S.D., read-out: Tmax): 0.5 h
- Vd/F (human, plasma, po, 120 mg, Table 25 (interim): Cohort B, 120 mg SDD (30 mg NTRX-07) QD oral, Day 7, mean ± S.D., read-out: Vd/F): 1240 ± 936 L
- AUC over 24 h (AUC0-24) (human, plasma, po, 360 mg SDD, Table 29 (interim): Cohort C, 360 mg SDD (90 mg NTRX-07) QD oral, Day 1, mean ± S.D.): 1290 ± 541 ng·h/mL
- Cmax (human, plasma, po, 360 mg SDD, Table 29 (interim): Cohort C, 360 mg SDD (90 mg NTRX-07) QD oral, Day 1, mean ± S.D., read-out: Cmax): 439 ± 236 ng/mL
- Tmax (human, plasma, po, 360 mg SDD, Table 29 (interim): Cohort C, 360 mg SDD (90 mg NTRX-07) QD oral, Day 1, mean ± S.D., read-out: Tmax): 2.3 ± 2.8 h
- Vd/F (human, plasma, po, 360 mg SDD, Table 29 (interim): Cohort C, 360 mg SDD (90 mg NTRX-07) QD oral, Day 1, mean ± S.D., read-out: Vd/F): 1300 ± 1290 L
- AUC over 24 h (AUC0-24) (human, plasma, po, 360 mg SDD, Table 30 (interim): Cohort C, 360 mg SDD (90 mg NTRX-07) QD oral, Day 7, mean ± S.D.): 747 ± 349 ng·h/mL
- Cmax (human, plasma, po, 360 mg SDD, Table 30 (interim): Cohort C, 360 mg SDD (90 mg NTRX-07) QD oral, Day 7, mean ± S.D., read-out: Cmax): 189 ± 95 ng/mL
- Tmax (human, plasma, po, 360 mg SDD, Table 30 (interim): Cohort C, 360 mg SDD (90 mg NTRX-07) QD oral, Day 7, mean ± S.D., read-out: Tmax): 1.3 ± 1 h
- Vd/F (human, plasma, po, 360 mg SDD, Table 30 (interim): Cohort C, 360 mg SDD (90 mg NTRX-07) QD oral, Day 7, mean ± S.D., read-out: Vd/F): 2270 ± 923 L
- AUC over 24 h (AUC0-24) (human, plasma, po, 360 mg SDD, Table 34 (interim): Cohort D (AD), 360 mg SDD (90 mg NTRX-07) QD oral, Day 1, mean ± S.D.): 1560 ± 329 ng·h/mL
- Cmax (human, plasma, po, 360 mg SDD, Table 34 (interim): Cohort D (AD), 360 mg SDD (90 mg NTRX-07) QD oral, Day 1, mean ± S.D., read-out: Cmax): 478 ± 154 ng/mL
- Tmax (human, plasma, po, 360 mg SDD, Table 34 (interim): Cohort D (AD), 360 mg SDD (90 mg NTRX-07) QD oral, Day 1, mean ± S.D., read-out: Tmax): 1.1 ± 0.6 h
- Vd/F (human, plasma, po, 360 mg SDD, Table 34 (interim): Cohort D (AD), 360 mg SDD (90 mg NTRX-07) QD oral, Day 1, mean ± S.D., read-out: Vd/F): 845 ± 360 L
- AUC over 24 h (AUC0-24) (human, plasma, po, 360 mg SDD, Table 35 (interim): Cohort D (AD), 360 mg SDD (90 mg NTRX-07) QD oral, Day 7, individual subjects): 1010 ng·h/mL
- Cmax (human, plasma, po, 360 mg SDD, Table 35 (interim): Cohort D (AD), 360 mg SDD (90 mg NTRX-07) QD oral, Day 7, individual subjects, read-out: Cmax): 286 ng/mL
- Vd/F (human, plasma, po, 360 mg SDD, Table 35 (interim): Cohort D (AD), 360 mg SDD (90 mg NTRX-07) QD oral, Day 7, individual subjects, read-out: Vd/F): 1260 L
- AUC over 24 h (AUC0-24) (human, plasma, po, 360 mg SDD, Table 35 (interim): Cohort D (AD), 360 mg SDD (90 mg NTRX-07) QD oral, Day 7, mean ± S.D.): 1430 ± 329 ng·h/mL
- Cmax (human, plasma, po, 360 mg SDD, Table 35 (interim): Cohort D (AD), 360 mg SDD (90 mg NTRX-07) QD oral, Day 7, mean ± S.D., read-out: Cmax): 240 ± 38 ng/mL
- Tmax (human, plasma, po, 360 mg SDD, Table 35 (interim): Cohort D (AD), 360 mg SDD (90 mg NTRX-07) QD oral, Day 7, mean ± S.D., read-out: Tmax): 1.1 ± 0.5 h
- Vd/F (human, plasma, po, 360 mg SDD, Table 35 (interim): Cohort D (AD), 360 mg SDD (90 mg NTRX-07) QD oral, Day 7, mean ± S.D., read-out: Vd/F): 1540 ± 278 L
- Plasma levels / exposure Day 7 vs Day 1 (repeat QD dosing, 90 mg cohorts): A decrease of levels at Day 7 was observed; also recorded: exposure is decreasing rather than increasing over time
